Reference: patent US8377974B2 (Millennium Pharmaceuticals, Inc., priority 2004, dated 2013)

Molecular target: T1, human plasma protein factor Xa (Homo sapiens, UniProt P00742)
T1 construct: measure proteolytic activity of the enzyme (factor Xa); purchased Haematologic Technologies (Essex Junction, Vt.); host or cells: human plasma
Assay: Factor Xa IC50 determination: cleavage of paranitroanilide substrate S-2765 in 96-well plates
Format: biochemical
Details: fXa 1 nM, S-2765 100 μM, Tris buffered saline pH 7.4, room temperature
How it was run: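 Initial rates of S-2765 (100 μM final) cleavage, read at 405 nm for 2 min, fitted with a four-parameter equation to give IC50. Enzyme: 1 nM human plasma fXa, 5 min room-temperature preincubation with inhibitor (0.01 nM–10 μM) in 20 mM Tris, 150 mM NaCl, 5 mM CaCl2, 0.1% BSA, 5% DMSO, pH 7.4; duplicates.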

T1 sequence (P00742 235-488 limits assumed): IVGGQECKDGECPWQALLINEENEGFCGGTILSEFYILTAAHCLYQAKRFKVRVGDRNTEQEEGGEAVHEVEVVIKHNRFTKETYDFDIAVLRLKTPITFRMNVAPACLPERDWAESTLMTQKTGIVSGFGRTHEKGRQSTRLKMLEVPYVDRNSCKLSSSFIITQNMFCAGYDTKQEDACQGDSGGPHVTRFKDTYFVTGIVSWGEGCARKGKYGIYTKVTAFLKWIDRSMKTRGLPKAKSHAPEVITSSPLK
T1 sequence (P00742 41-179 partner limits assumed): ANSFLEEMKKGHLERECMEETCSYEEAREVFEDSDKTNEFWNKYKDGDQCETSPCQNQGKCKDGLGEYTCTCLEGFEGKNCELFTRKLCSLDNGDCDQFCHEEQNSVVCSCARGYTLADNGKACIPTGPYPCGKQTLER

Row | SMILES | IC50 [nM]
1 | CNC(=N)c1ccc(-c2cc(CN(C)C(=O)c3ccc(Cl)s3)on2)cc1 [Example 48, 5-Chloro-thiophene-2-carboxylic acid methyl-{3-[4-(N-methylcarbamimidoyl)-phenyl]-isoxazol-5-ylmethyl}-amide] | ≤ 100
2 | CN(C)CCN(C)Cc1ccccc1-c1ccc(C2=NOC(CNC(=O)c3ccc(Cl)s3)C2)cc1 (centres unmarked) [Example 200, 5-Chloro-thiophene-2-carboxylic acid [3-(2′-{[(2-dimethylamino-ethyl)-methyl-amino]-methyl}-biphenyl-4-yl)-4,5-dihydro-isoxazol-5-ylmethyl]-amide] | ≤ 100
3 | COCCN(C)C(=N)c1ccc(-c2cc(CN(C)C(=O)c3ccc(Cl)s3)on2)cc1 [Example 46, 5-Chloro-thiophene-2-carboxylic acid (3-{4-[N-(2-methoxy-ethyl)-N-methyl-carbamimidoyl]-phenyl}-isoxazol-5-ylmethyl)-methyl-amide] | ≥ 500
4 | O=C(NCC1CC(c2cccc(-c3ccc(CN4CCCC4)cc3)c2)=NO1)c1ccc(Cl)s1 (centres unmarked) [Example 267, 5-Chloro-thiophene-2-carboxylic acid [3-(4′-pyrrolidin-1-ylmethyl-biphenyl-3-yl)-4,5-dihydro-isoxazol-5-ylmethyl]-amide] | ≥ 500
5 | COc1ccc(CN2CCCC2)c(-c2ccc(C3=NOC(CNC(=O)c4ccc(Cl)s4)C3)cc2)c1 (centres unmarked) [Example 203, 5-Chloro-thiophene-2-carboxylic acid [3-(5′-methoxy-2′-pyrrolidin-1-ylmethyl-biphenyl-4-yl)-4,5-dihydro-isoxazol-5-ylmethyl]-amide] | ≤ 100
6 | COCCN(C)c1cc(C(=N)N(C)C)ccc1C1=NOC(CNC(=O)c2ccc(Cl)s2)C1 (centres unmarked) [Example 86, 5-Chloro-thiophene-2-carboxylic acid (3-{4-(N,N-dimethyl-carbamimidoyl)-2-[(2-methoxy-ethyl)-methyl-amino]-phenyl}-4,5-dihydro-isoxazol-5-ylmethyl)-amide] | ≤ 100
7 | CN1CCN=C1c1ccc(C2=NOC(C)(CNC(=O)c3ccc(Cl)s3)C2)cc1 (centres unmarked) [Example 58, 5-Chloro-thiophene-2-carboxylic acid {5-methyl-3-[4-(1-methyl-4,5-dihydro-1H-imidazol-2-yl)-phenyl]-4,5-dihydro-isoxazol-5-ylmethyl}-amide] | ≤ 100
8 | CCOc1cc(C2=NCCN2C)ccc1C1=NOC(CNC(=O)c2ccc(Cl)s2)C1 (centres unmarked) [Example 107, 5-Chloro-thiophene-2-carboxylic acid {3-[2-ethoxy-4-(1-methyl-4,5-dihydro-1H-imidazol-2-yl)-phenyl]-4,5-dihydro-isoxazol-5-ylmethyl}-amide] | ≤ 100
9 | O=C(NCc1cc(-c2ccc(C(N3CCC3)=[N+]3CCC3)cc2)no1)c1ccc(Cl)s1 [Example 27, 5-Chloro-thiophene-2-carboxylic acid {3-[4-(azetidin-1-yl-azetidin-1-ylidene-methyl)-phenyl]-isoxazol-5-ylmethyl}-amide] | ≤ 100
10 | O=C(NCC1CC(c2ccc(Nc3ccc4ncccc4c3)cc2)=NO1)c1ccc(Cl)s1 (centres unmarked) [Example 396, 5-Chloro-N-((3-(4-(quinolin-6-ylamino)phenyl)-4,5-dihydroisoxazol-5-yl)methyl)thiophene-2-carboxamide] | ≥ 500
11 | CN(c1ccc(C2=NOC(CNC(=O)c3ccc(Cl)s3)C2)cc1)c1ccnc(N)n1 (centres unmarked) [Example 231, 5-Chloro-thiophene-2-carboxylic acid (3-{4-[(2-amino-pyrimidin-4-yl)-methyl-amino]-phenyl}-4,5-dihydro-isoxazol-5-ylmethyl)-amide] | ≥ 500
12 | N=C(c1ccc(-c2nc(CNC(=O)c3ccc(Cl)s3)co2)cc1)N1CCCC1 [Example 340, 5-Chloro-N-((2-(4-(imino(pyrrolidin-1-yl)methyl)phenyl)oxazol-4-yl)methyl)thiophene-2-carboxamide] | ≤ 100
13 | O=C(NCC1CC(c2ccc(-c3ccccc3CN3CCCCCC3)cc2)=NO1)c1ccc(Cl)s1 (centres unmarked) [Example 201, 5-Chloro-thiophene-2-carboxylic acid [3-(2′-azepan-1-ylmethyl-biphenyl-4-yl)-4,5-dihydro-isoxazol-5-ylmethyl]-amide] | ≥ 500
14 | COc1cc(C(=N)N2CCCC2)ccc1C1=NOC(CNC(=O)c2ccc(Cl)s2)C1 (centres unmarked) [Example 104, 5-Chloro-thiophene-2-carboxylic acid {3-[4-(imino-pyrrolidin-1-yl-methyl)-2-methoxy-phenyl]-4,5-dihydro-isoxazol-5-ylmethyl}-amide] | ≤ 100
15 | CN1CCN=C1c1ccc(C2=NOC(CNC(=O)c3ccc(Cl)s3)C2)cc1 (centres unmarked) [Example 9, 5-Chloro-thiophene-2-carboxylic acid {3-[4-(1-methyl-4,5-dihydro-1H-imidazol-2-yl)-phenyl]-4,5-dihydro-isoxazol-5-ylmethyl}-amide] | ≤ 100
16 | N=C(c1ccc(-c2ccc(F)c(CNC(=O)c3ccc(Cl)s3)c2)cc1)N1CCCC1 [Example 376, 5-Chloro-N-((5-(4-(imino(pyrrolidin-1-yl)methyl)phenyl)-2-fluorophenyl)methyl)thiophene-2-carboxamide] | ≤ 100

Row | SMILES | IC50 [nM]
17 | CNC(=N)c1ccc(-c2nc(CNC(=O)c3ccc(Cl)s3)cs2)cc1 [Example 358, N-((2-(4-(N-Methylcarbamimidoyl)phenyl)thiazol-4-yl)methyl)-5-chlorothiophene-2-carboxamide] | ≥ 500
18 | CN(C)Cc1ccccc1-c1cccc(-c2cc(CNC(=O)c3ccc(Cl)s3)on2)c1 [Example 268, 5-Chloro-thiophene-2-carboxylic acid [3-(T-dimethylaminomethyl-biphenyl-3-yl)-isoxazol-5-ylmethyl]-amide] | ≥ 500
19 | COCCN(C)c1cc(C(=N)N2CCCCC2)ccc1C1=NOC(CNC(=O)c2ccc(Cl)s2)C1 (centres unmarked) [Example 89, 5-Chloro-thiophene-2-carboxylic acid (3-{4-(imino-piperidin-1-yl-methyl)-2-[(2-methoxy-ethyl)-methyl-amino]-phenyl}-4,5-dihydro-isoxazol-5-ylmethyl)-amide] | 100 to 500
20 | O=C(NCc1cc(C2CCN(Cc3ccccc3)CC2)no1)c1ccc(Cl)s1 [Example 178, 5-Chloro-thiophene-2-carboxylic acid [3-(1-benzyl-piperidin-4-yl)-isoxazol-5-ylmethyl]-amide] | ≥ 500
21 | CN(C)C(=N)c1ccc(-c2cc(CNC(=O)c3ccc(Cl)s3)on2)c(N(C)C)c1 [Example 94, 5-Chloro-thiophene-2-carboxylic acid {3-[2-dimethylamino-4-(N,N-dimethyl-carbamimidoyl)-phenyl]-isoxazol-5-ylmethyl}-amide] | ≤ 100
22 | O=C(NCc1cc(-c2ccc(-c3ccncc3)cc2)no1)c1ccc(Cl)s1 [Example 193, 5-Chloro-thiophene-2-carboxylic acid [3-(4-pyridin-4-yl-phenyl)-isoxazol-5-ylmethyl]-amide] | ≤ 100
23 | O=Cc1ccccc1-c1ccc(C2=NOC(CNC(=O)c3ccc(Cl)s3)C2)cc1 (centres unmarked) [Example 183, 5-Chloro-thiophene-2-carboxylic acid [3-(2′-formyl-biphenyl-4-yl)-4,5-dihydro-isoxazol-5-ylmethyl]-amide] | ≥ 500
24 | CN1CCN=C1c1ccc(-c2cc(CNC(=O)c3ccc(Cl)s3)ccc2F)cc1 [Example 378, 5-Chloro-N-((3-(4-(1-methyl-4,5-dihydro-1H-imidazol-2-yl)phenyl)-4-fluorophenyl)methyl)thiophene-2-carboxamide] | 100 to 500
25 | N=C(c1ccc(-c2nc(CNC(=O)c3ccc(Cl)s3)co2)cc1)N1CCCCC1 [Example 341, 5-Chloro-N-((2-(4-(imino(piperidin-1-yl)methyl)phenyl)oxazol-4-yl)methyl)thiophene-2-carboxamide] | ≤ 100
26 | CN(C)C(=N)c1ccc(C2=NOC(CNC(=O)c3ccc(Cl)s3)C2)c(N(C)C)c1 (centres unmarked) [Example 74, 5-Chloro-thiophene-2-carboxylic acid {3-[2-dimethylamino-4-(N,N-dimethyl-carbamimidoyl)-phenyl]-4,5-dihydro-isoxazol-5-ylmethyl}-amide] | 100 to 500
27 | CN(c1ccncc1)c1ccc(-c2cc(CNC(=O)c3ccc(Cl)s3)on2)cc1 [Example 255, 5-Chloro-thiophene-2-carboxylic acid {3-[4-(methyl-pyridin-4-yl-amino)-phenyl]-isoxazol-5-ylmethyl}-amide] | ≥ 500
28 | O=C(NCC1CC(c2ccc(N3CCN(C(=O)OCc4ccccc4)CC3=O)cc2)=NO1)c1ccc(Cl)s1 (centres unmarked) [Example 242, 4-[4-(5-{[(5-Chloro-thiophene-2-carbonyl)-amino]-methyl}-4,5-dihydro-isoxazol-3-yl)-phenyl]-3-oxo-piperazine-1-carboxylic acid benzyl ester] | ≤ 100
29 | Cc1ccc(=O)n(-c2ccc(-n3cc(CNC(=O)c4ccc(Cl)s4)nn3)cc2)c1 [Example 296, 5-Chloro-N-((1-(4-(5-methyl-2-oxopyridin-1(2H)-yl)phenyl)-1H-1,2,3-triazol-4-yl)methyl)thiophene-2-carboxamide] | ≤ 100
30 | O=C(NCC1CC(c2cccc(-c3ccccc3CN3CCCC3)c2)=NO1)c1ccc(Cl)s1 (centres unmarked) [Example 263, 5-Chloro-thiophene-2-carboxylic acid [3-(2′-pyrrolidin-1-ylmethyl-biphenyl-3-yl)-4,5-dihydro-isoxazol-5-ylmethyl]-amide] | ≥ 500
31 | CN1CCN=C1c1ccc(C2=NOC(CNC(=O)c3ccc(Cl)s3)C2)c(OC2CCCCC2)c1 (centres unmarked) [Example 116, 5-Chloro-thiophene-2-carboxylic acid {3-[2-cyclohexyloxy-4-(1-methyl-4,5-dihydro-1H-imidazol-2-yl)-phenyl]-4,5-dihydro-isoxazol-5-ylmethyl}-amide] | ≤ 100
32 | O=C(NCc1cc(-c2cccc(-c3cccc(CN4CCCC4)c3)c2)no1)c1ccc(Cl)s1 [Example 271, 5-Chloro-thiophene-2-carboxylic acid [3-(3′-pyrrolidin-1-ylmethyl-biphenyl-3-yl)-isoxazol-5-ylmethyl]-amide] | ≥ 500
